System: primary mouse cortical neurons
Experiment: In vitro spinogenesis: synaptophysin (P38) puncta / synapse count in primary mouse cortical neurons
Type: cell-based
Details: for increase in the number of synapses compared to the control: 1 μM, 24 hrs of treatment starting at DIV 15, DIV 16 neurons; for number of synaptic puncta (P38-immunopositive) compared to the vehicle control: 5 μM, 24 hours of treatment starting at DIV 15, DIV 16 neurons
From the text: Compounds of the current invention bind to the actin bundling protein, fascin, and prevent the formation of long, stiff actin cytoskeleton, thereby promoting dendritic spine formation. (see, Sedeh, R. S. et al. J. Mol. Biol. 400, 589-604 (2010); Chen, L. et al. Nature 464, 1062-1066 (2010); Jansen, S. et al. J. Biol. Chem. 286, 30087-30096 (2011); Yang, S. et al. J. Biol. Chem. 288, 274-284 (2013); Zheng, S. et al. J. Med. Chem. 57, 6653-6667 (2014)). […] Specifically, the Benzothiazole-IIIA and Benzothiazole-IIIB compounds of the instant invention, as well as the Benzothiazole-I compound as described in International application number PCT/US2017/012139, were used in this study (FIG. 1).
Primary mouse cortical neurons were treated with 5 μM of Benzothiazole-I, Benzothiazole-IIIA, or Benzothiazole-IIIB at DIV 15. As a control, primary mouse cortical neurons were treated with the vehicle only (10% DMSO, 90% phosphate buffered saline (PBS)). After 24 hours, the DIV 16 neurons were fixed, immunostained using the presynaptic vesicle protein synaptophysin (P38), counterstained with the nuclear dye DAPI (4′,6-diamidino-2-phenylindole,), and counted. Immunolabeled neurons were imaged on a Leica confocal microscope. The numbers of P38-immunopositive puncta were analyzed using FIJI with the Squash plugin (FIG. 2).
In a similar experiment, the primary mouse cortical neurons were treated with 1 μM of Benzothiazole-I or Benzothiazole-IIIB at DIV 15, using the same DMSO/PBS buffer solution described above as the control vehicle. After 24 hours, the DIV 16 neurons were fixed, immunolabeled with synaptophysin, stained with DAPI, and counted as described above.

Compound | increase in the number of synapses compared to the control [%] | number of synaptic puncta (P38-immunopositive) compared to the vehicle control
Cc1ccc2nc(-c3ccc(NCCOCCOCCOCCO)cc3)sc2c1 [Benzothiazole-I, ((4-(6-methylbenzo[d]thiazol-2-yl)phenyl)amino)-(CH2CH2O)4H, reference compound] | ~100 | increase
OCCOCCOCCOCCOCCOCCOc1ccc(-c2nc3ccccc3s2)cc1 [Benzothiazole-IIIA] | – | increase
OCCOCCOCCOCCOc1ccc(-c2nc3ccccc3s2)cc1 [Benzothiazole-IIIB, 2-(2-(2-(2-(4-(benzo[d]thiazol-2-yl)phenoxy)ethoxy)ethoxy)ethoxy)ethan-1-ol] | ~100 | increase

— patent US12391659B2, “Benzothiazole and related compounds” (Spinogenix, Inc., priority 2017, dated 2025)
